Patent US4721715A, “Derivatives of 4-(arylpiperazinyl-ethylaminoethoxy) phenol useful for effecting hypolipidemic therapy or cardiovascular therapy” (Societe Cortial, S.A., priority 1984, dated 1988)
Where a name gives a salt, the structure may show the parent alone.

How the values were obtained:
[1] = tested on: isolated guinea pig ileum (serotonin); assay: Antiserotonin activity in vitro: serotonin-induced contractions of isolated guinea pig ileum; conditions: serotonin 10^-6 g/ml
Excerpt: Antiserotonin Activity: In vitro, contractions induced in isolated guinea pig ileum by 10^-6 g/ml serotonin were inhibited by COR 2838 in a concentration of 4.10^-7 g/ml and COR 2831 and COR 2833 in a concentration of 2.10^-6 g/ml.

[2] = tested on: isolated guinea pig ileum (histamine); assay: Antihistamine activity in vitro: histamine-induced contractions of isolated guinea pig ileum; conditions: histamine 5.10^-7 g/ml
[3] = tested on: passive cutaneous anaphylaxis; assay: Passive cutaneous anaphylaxis test in rats; format: in vivo
Protocol: Antiallergy-Antihistamine Activity: In the passive cutaneous anaphylaxis test, COR 2833 and COR 2838 given to rats in an intravenous dose of 10 mg/kg produced 53 and 60% activity, respectively. Under the same conditions, COR 2831 produced 67% activity in an oral dose of 5 mg/kg.

[4] = tested on: mice; assay: Toxicity, oral administration to mice; format: in vivo; conditions: oral dose of 300 mg/kg
[5] = tested on: platelet aggregation; assay: Platelet anti-aggregation activity: sodium arachidonate-induced aggregation in rabbit plasma with a high platelet content; format: cell-based; conditions: Oryctolagus cuniculus, 50 mcg/ml sodium arachidonate; for inhibition at 5 µg/mL: 5 mcg/ml
Excerpt: In the presence of aspirin, this inhibition was 100% in a concentration of 2.5 mcg/ml COR 2860 and a concentration of 5 mcg/ml COR 2864. In the absence of aspirin, the inhibition was 100% with a concentration of 5 mcg/ml COR 2860 and 10 mcg/ml COR 2864.

[6] = tested on: mice; assay: Toxicity, intraperitoneal administration to mice
[7] = tested on: phenylephrine-induced hypertension; assay: Alpha-blocking activity in vivo: antagonism of phenylephrine-induced hypertension in rats with spinal cord removal and bivagotomy; conditions: intravenous; for inhibition in vivo at 3 µmol/kg / ED50: Rattus norvegicus; for inhibition in vivo at 3 µmol/kg: read-out: maximum activity (antagonism of phenylephrine-induced hypertension)
Protocol: (§1) Alpha-blocking activity was determined in vivo in mice with the test involving inhibition of mydriasis induced by norepinephrine. […] Thirty minutes later, 0.75 mg/kg norepinephrine was administered intravenously. […] In vivo alpha-blocking activity was also evaluated by determination of antagonism of phenylephrine-induced hypertension. The test products were administered by the intravenous route to rats that had undergone spinal cord removal and bivagotomy according to the technique by J. S. Gillespie and T. S. Muir (Br. J. Pharmac. Chemother. 30:78-87, 1967). The dosage, maximum activity, and the interval after which residual activity was equal to 50% of the maximum activity are presented below: […]

[8] = tested on: norepinephrine-induced mydriasis; assay: Alpha-blocking activity in vivo: inhibition of norepinephrine-induced mydriasis in mice; conditions: 25 mg/kg, 0.75 mg/kg norepinephrine IV
Protocol: as §1

[9] = tested on: spontaneously hypertensive rats; assay: Antihypertensive activity, spontaneously hypertensive rats, oral, two days, sphygmomanometer; format: in vivo; conditions: 100 mg/kg/day for two days, one hour after gavage
Protocol: Antihypertensive Activity: The test products were administered orally to spontaneously hypertensive rats. Arterial pressure was measured indirectly with a sphygmomanometer.

[10] = tested on: IgE; assay: Combined anaphylactic reaction (IgE) and cutaneous histamine reaction in the same rat: IgE reaction; format: in vivo, Sprague-Dawley rat
Protocol: (§2) Antihistamine-antiallergy activity was also determined by combining an anaphylactic reaction (IgE) and a cutaneous histamine reaction in the same animal (Sprague-Dawley rat). Activity was evaluated by the quantity of Evans blue liberated at each reaction site as compared with control animals receiving the administration vehicle. COR 2831 produced the following ED50 values in this test: […]

[11] = Toxicity, intravenous administration to mice; format: in vivo; conditions: mouse, in vivo, intravenous route
[12] = tested on: Alpha-1; assay: Type of antagonism vis-a-vis norepinephrine on isolated rabbit aorta strips (cumulative curve method, Van Rossum, in presence of cocaine); conditions: 30 minutes interval
Protocol: Alpha-1 Blocking Activity: Alpha-1 blocking activity is evaluated in vitro by determination of the antagonism of contractions induced in isolated rabbit aorta strips by norepinephrine used in a concentration of 2.10^-6 mol/1 according to a technique derived from that described by Furchgott and Bhadrakom (J. Pharmacol. 108:129-43, 1953). The IC50 (concentration inhibiting 50% of the contractions) as well as the interval between introduction of the test product and of the […] into the bath, which corresponds to the maximum activity, are presented below for the derivatives according to the present invention: COR 2831, 90 min, 1.10·10^-7 (9.26·10^-8 -1.31·10^-7)mol/1; COR 2837, 30 min, 1.64·10^-6 (1.44·10^-6 -1.85·10^-6) mol/1; COR 2841, 60 min, 1.16·10^-6(9.24·10^-7 -1.46·10^-6) mol/1; COR 2843, 60 min, 9.82·10^ -7 (7.67·10^-7 -1.26·10^-6) mol/1; COR 2838, 60 min, 2.53·10^-6(2.15·10^-6 -2.98·10^-6 mol/1. The type of antagonism that COR 2831 exerts vis-a-vis norepinephrine was determined on the same type of preparation for an interval of 30 minutes, using the cumulative curve method according to Van Rossum in the presence of cocaine.

[13] = Toxicity, oral administration to mice; format: in vivo; conditions: mouse, in vivo, oral route, confidence interval in parentheses
[14] = tested on: histamine; assay: Combined anaphylactic reaction (IgE) and cutaneous histamine reaction in the same rat: histamine reaction; format: in vivo, Sprague-Dawley rat
Protocol: as §2

[15] = tested on: Alpha-1; assay: Alpha-1 blocking activity in vitro: antagonism of norepinephrine-induced contractions of isolated rabbit aorta strips; conditions: norepinephrine 2.10^-6 mol/1
[16] = tested on: strips of mesenteric veins; assay: Anticalcium activity: calcium-induced increment of spontaneous contractions in mesenteric vein strips; conditions: 5.10^-6 g/ml, rats with normal blood pressure
Excerpt: At 5.10^-6 g/ml, COR 2838 inhibited the calcium-induced increment of spontaneous contractions in strips of mesenteric veins from rats with normal blood pressure.

[17] = Solubility and hygroscopicity of the isolated product; format: physicochemical; conditions: dihydrochloride
Protocol: A solution of 6 g 4-isopropyl-2-methyl-4-methylaminoethoxy phenol and 6 g 1-chloroethyl-4-phenylpiperazine in 10 ml triethylamine and 150 ml ethyl alcohol is heated for 20 hours in a reflux system. The excess ethyl alcohol and triethylamine are evaporated. The residue is taken up in an aqueous solution of hydrochloric acid. The solution obtained is extracted with chloroform. The aqueous phase is alkalized with ammonia and then extracted again with chloroform. After drying and evaporation of the chloroform, 9.3 g of crude product is obtained. This is purified by silica chromatography using as the eluent pure chloroform followed by a mixture of 98% chloroform and 2% methanol. This procedure yield 4.6 g of free base; yield, 42%. The latter is transformed into a hydrochloride by a saturated ethyl ether solution in gaseous hydrochloric acid. This produces a white solid which is filtered and washed with a little ethyl ether.

[18] = tested on: left guinea pig auricle; assay: Anticalcium activity: electrically stimulated left guinea pig auricle, calcium-induced contraction force; conditions: 25.10^-6 g/ml; 0.6 mM calcium added; 150 beats/min, low calcium Tyrode's solution
[19] = tested on: glucose tolerance curve; assay: Hypoglycemic activity: glucose tolerance curve after an excess of starch; format: in vivo; conditions: one hour after oral 100 mg/kg, excess of starch (2.5 g per kg)
Protocol: (§3) Hypoglycemic Activity: One hour after oral administration of a dose of 100 mg/kg, COR 2839 produced a 21% reduction in the glucose tolerance curve after an excess of starch (2.5 g per kg). One hour after oral administration of a dose of 100 mg per kg, COR 2839 brought about a decrease of 24% in the blook sugar of fasting mice subjected to an excess of glucose (1 g per kg) at the time that the test product was tiven.

[20] = tested on: fasting mice; assay: Hypoglycemic activity: blood sugar of fasting mice subjected to an excess of glucose; format: in vivo; conditions: one hour after oral 100 mg per kg, excess of glucose (1 g per kg)
Protocol: as §3

[21] = mice, intraperitoneal dose of 200 mg per kg

COc1ccccc1N1CCN(CCN(C)CCOc2cc(C)c(O)cc2C(C)C)CC1 [COR 2833, 5-Isopropyl-2-methyl-4-((N-methyl N-2-((2-methoxyphenyl)piperazinylethyl)amino)ethoxyphenoldihydrochloride]
inhibition of serotonin-induced contractions ([1]; 2.10^-6 g/ml): inhibited | inhibition of histamine-induced contractions ([2]; concentration of 2.10^-6): 80% | activity in the passive cutaneous anaphylaxis test ([3]; intravenous, 10 mg/kg): 53%

Cc1cc(OCCN2CCN(c3ccccc3Cl)CC2)c(C(C)C)cc1O [COR 2864, 5-Isopropyl-2-methyl-4-((2-chlorophenyl)piperazinylethoxy)phenol hydrochloride]
deaths [4]: no deaths | inhibition at 5 µg/mL ([5]; in the presence of aspirin (1 mcg/ml)): 100% | inhibition at 10 µg/mL ([5]; 10 mcg/ml, in the absence of aspirin): 100% | deaths [6, 21]: no deaths | inhibition in vivo at 3 µmol/kg ([7]; 3.10^-6 M/kg): 98.6%

CC(CCc1ccccc1)NCC(O)c1ccc(O)c(C(N)=O)c1 (centres unmarked) [labetalol, reference compound]
inhibition of mydriasis [8]: 58%

Cc1cc(OCCN2CCN(c3cccc(Cl)c3)CC2)c(C(C)C)cc1O [COR 2842, 5-Isopropyl-2-methyl-4-((3-chlorophenyl)piperazinylethoxy)phenol hydrochloride]
deaths [4]: no deaths | deaths [6, 21]: no deaths | inhibition in vivo at 3 µmol/kg ([7]; 3.10^-6 M/kg): 35.1%

COc1ccccc1N1CCN(CCOc2cc(C)c(O)cc2C(C)C)CC1 [COR 2831, 5-Isopropyl-2-methyl-4-(2-methoxyphenylpiperazinyl)ethoxy)phenol hydrochloride]
maximum pressure reduction ([9]; first day): 26% | maximum pressure reduction ([9]; second day): 21% | ED50 ([10]; IV route): 0.27 mg/kg | ED50 ([10]; Oral route): 14.4 mg/kg | LD50 [11]: 86 mg/kg | pA2 ([12]; Arunlakshama and Schild method): 8.59±0.08 | type of antagonism ([12]; vis-a-vis norepinephrine): competitive nature | LD50 [13]: 1130 mg/kg | deaths [4]: no deaths | ED50 ([14]; IV route): 0.37 mg/kg | ED50 ([14]; Oral route): 8 mg/kg | interval between introduction of the test product and of the […] into the bath, which corresponds to the maximum activity [15]: 90 min | inhibition of serotonin-induced contractions ([1]; 2.10^-6 g/ml): inhibited | inhibition of histamine-induced contractions ([2]; 10^-5 g/ml): 80% | deaths [6, 21]: no deaths | ED50 ([7]; 2 min, after 2 min): 0.0195 µmol/kg | ED50 ([7]; 0.5 h, after 30 min): 0.304 µmol/kg | ED50 ([7]; 1 h, after 60 min): 0.84 µmol/kg | inhibition in vivo at 3 µmol/kg ([7]; 3.10^-6 M/kg): 129% | interval after which residual activity was equal to 50% of the maximum activity ([7]; 3.10^-6 M/kg): > 2 h | activity in the passive cutaneous anaphylaxis test ([3]; oral, 5 mg/kg): 67%

COc1ccc(N2CCN(CCOc3cc(C)c(O)cc3C(C)C)CC2)cc1 [COR 2860, 5-Isopropyl-2-methyl-4-((4-methoxyphenylpiperazinyl)ethoxy)phenol dihydrochloride]
deaths [4]: no deaths | inhibition at 2.5 µg/mL ([5]; 2.5 mcg/ml, in the presence of aspirin (1 mcg/ml)): 100% | inhibition at 5 µg/mL ([5]; in the absence of aspirin): 100% | deaths [6, 21]: no deaths | inhibition in vivo at 3 µmol/kg ([7]; 3.10^-6 M/kg): 39.7%

Cc1cc(OCCN(C)CCN2CCN(c3ccccc3)CC2)c(C(C)C)cc1O [COR 2838, 5-Isopropyl-2-methyl-4-((N-methyl N-2-(phenylpiperazinyl-ethyl)amino)ethoxy) phenol dihydrochloride]
inhibition of calcium-induced increment of spontaneous contractions [16]: inhibited | hygroscopicity [17]: hygroscopic | solubility in water [17]: soluble in water | interval between introduction of the test product and of the […] into the bath, which corresponds to the maximum activity [15]: 60 min | inhibition of the increment in the contraction force induced by calcium [18]: 50% | inhibition of serotonin-induced contractions ([1]; 4.10^-7 g/ml): inhibited | inhibition of histamine-induced contractions ([2]; 10^-5 g/ml): 80% | deaths ([6]; mouse, in vivo, ip, 50 mg/kg): no deaths | inhibition in vivo at 3 µmol/kg ([7]; 3.10^-6 M/kg): 60% | activity in the passive cutaneous anaphylaxis test ([3]; intravenous, 10 mg/kg): 60%

Cc1cc(OCCN2CCN(c3ccccc3C)CC2)c(C(C)C)cc1O [COR 2843, 5-Isopropyl-2-methyl-4-(2-methylphenyl) piperazinylethoxy phenol hydrochloride]
deaths [4]: no deaths | deaths [6, 21]: no deaths | inhibition in vivo at 3 µmol/kg ([7]; 3.10^-6 M/kg): 112%

Cc1cc(OCCN2CCN(c3cccc(C(F)(F)F)c3)CC2)c(C(C)C)cc1O [COR 2839, 5-Isopropyl-2-methyl-4-(3-trifluoromethylphenyl) piperazinyl-ethoxy)phenol hydrochloride]
reduction in the glucose tolerance curve [19]: 21% | decrease in the blood sugar [20]: 24% | deaths [6, 21]: no deaths

Cc1cc(OCCN2CCN(c3cccc(C)c3C)CC2)c(C(C)C)cc1O [COR 2861, 5-Isopropyl-2-methyl-4-((2,3-dimethylphenylpiperazinyl)ethoxyphenol hydrochloride]
deaths [4]: no deaths | deaths [6, 21]: no deaths | inhibition in vivo at 3 µmol/kg ([7]; 3.10^-6 M/kg): 66.4%

Cc1cc(OCCN2CCN(c3ccccc3)CC2)c(C(C)C)cc1O [COR 2837, 5-Isopropyl-2-methyl-4-phenylpiperazinylethoxyphenol hydrochloride]
deaths [4]: no deaths | deaths [6, 21]: no deaths | inhibition in vivo at 3 µmol/kg ([7]; 3.10^-6 M/kg): 91.1%

Cc1cc(OCCN2CCN(c3ccc(F)cc3)CC2)c(C(C)C)cc1O [COR 2841, 5-Isopropyl-2-methyl-4-(p-fluorophenylpiperazinylethoxy)phenol hydrochloride]
deaths [4]: no deaths | inhibition in vivo at 3 µmol/kg ([7]; 3.10^-6 M/kg): 39.8%
